Source: BindingDB's records for doi:10.1021/jm0704898 (Georgetown University Medical Center, 2007)

Assays:
[1] = target: T1, Suppressor of tumorigenicity 14 protein (Homo sapiens, UniProt Q9Y5Y6); experiment: Enzyme Inhibition Assay; settings: pH 8.5; 22 °C
T1 sequence (Q9Y5Y6 whole entry): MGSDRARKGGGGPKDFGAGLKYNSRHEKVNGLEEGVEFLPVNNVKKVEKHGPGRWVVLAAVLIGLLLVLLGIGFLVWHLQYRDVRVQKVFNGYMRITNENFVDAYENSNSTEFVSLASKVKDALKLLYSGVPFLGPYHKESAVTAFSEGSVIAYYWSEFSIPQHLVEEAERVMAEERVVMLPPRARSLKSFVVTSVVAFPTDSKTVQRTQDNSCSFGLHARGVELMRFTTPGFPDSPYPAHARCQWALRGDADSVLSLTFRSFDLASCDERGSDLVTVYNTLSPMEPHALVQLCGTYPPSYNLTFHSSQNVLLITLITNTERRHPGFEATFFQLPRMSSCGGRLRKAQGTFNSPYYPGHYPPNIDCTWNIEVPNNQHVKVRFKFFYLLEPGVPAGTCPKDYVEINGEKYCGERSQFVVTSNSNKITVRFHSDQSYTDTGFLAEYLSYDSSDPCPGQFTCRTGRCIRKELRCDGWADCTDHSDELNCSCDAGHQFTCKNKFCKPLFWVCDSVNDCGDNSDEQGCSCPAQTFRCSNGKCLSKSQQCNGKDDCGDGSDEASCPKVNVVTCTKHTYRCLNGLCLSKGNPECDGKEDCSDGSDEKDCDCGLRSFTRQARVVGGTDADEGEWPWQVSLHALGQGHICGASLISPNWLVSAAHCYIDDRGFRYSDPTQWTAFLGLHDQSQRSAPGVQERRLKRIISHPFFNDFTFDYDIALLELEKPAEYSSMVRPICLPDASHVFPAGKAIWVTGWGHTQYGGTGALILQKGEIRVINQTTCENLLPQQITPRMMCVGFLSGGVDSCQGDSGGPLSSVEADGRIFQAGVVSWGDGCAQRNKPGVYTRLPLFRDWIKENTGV
Protocol: (§1) The enzyme reaction was initiated by adding fluorescence peptide substrate to reaction mixture containing enzyme and test compounds. […] Hydrolysis rates were recorded in presence of six to seven different concentrations of inhibitor.

Prothrombin = Prothrombin (Bos taurus, UniProt P00735); experiment: Enzyme Inhibition Assay; settings: pH 8.5; 22 °C
Protocol: as §1

| SMILES | Ki [1] | Ki (Prothrombin) |
| --- | --- | --- |
| CC[C@H](C)[C@@H]1NC(=O)[C@@H]2CCCN2C(=O)[C@@H]2CCCN2C(=O)[C@H]([C@@H](C)CC)NC(=O)[C@H](CO)NC(=O)[C@H](CCCCN)NC(=O)[C@H]([C@@H](C)O)NC(=O)[C@@H]2CSSC[C@H](NC1=O)C(=O)N[C@@H](Cc1c(F)c(F)c(F)c(F)c1F)C(=O)N1CCC[C@H]1C(=O)N[C@@H](CC(=O)O)C(=O)NCC(=O)N[C@@H](CCCN=C(N)N)C(=O)N2 | 0.89 µM | 33.6 µM |
| CC[C@H](C)[C@@H]1NC(=O)[C@@H]2CCCN2C(=O)[C@@H]2CCCN2C(=O)[C@H]([C@@H](C)CC)NC(=O)[C@H](CO)NC(=O)[C@H](CCCN)NC(=O)[C@H]([C@@H](C)O)NC(=O)[C@@H]2CSSC[C@H](NC1=O)C(=O)N[C@@H](Cc1ccccc1)C(=O)N1CCC[C@H]1C(=O)N[C@@H](CC(=O)O)C(=O)NCC(=O)N[C@@H](CCCN=C(N)N)C(=O)N2 [2-[(1R,4S,7S,13S,19S,22S,25S,28S,31R,34S,40S,43S,49S)-25-(3-aminopropyl)-49-benzyl-4,19-bis[(2S)-butan-2-yl]-34-(3-carbamimidamidopropyl)-28-[(1R)-1-hydroxyethyl]-22-(hydroxymethyl)-3,6,12,18,21,24,27,30,33,36,39,42,48,51-tetradecaoxo-53,54-dithia-2,5,11,17,20,23,26,29,32,35,38,41,47,50-tetradecaazapentacyclo[29.20.4.0^{7,11}.0^{13,17}.0^{43,47}]pentapentacontan-40-yl]acetic acid] | > 250 µM | – |
| CC[C@H](C)[C@@H]1NC(=O)[C@@H]2CCCN2C(=O)[C@@H]2CCCN2C(=O)[C@H]([C@@H](C)CC)NC(=O)[C@H](CO)NC(=O)[C@H](CCCCN)NC(=O)[C@H]([C@@H](C)O)NC(=O)[C@@H]2CSSC[C@H](NC1=O)C(=O)N[C@@H](Cc1ccc(-c3ccccc3)cc1)C(=O)N1CCC[C@H]1C(=O)N[C@@H](CC(=O)O)C(=O)NCC(=O)N[C@@H](CCCN=C(N)N)C(=O)N2 [2-[(1R,4S,7S,13S,19S,22S,25S,28S,31R,34S,40S,43S,49S)-25-(4-aminobutyl)-4,19-bis[(2S)-butan-2-yl]-34-(3-carbamimidamidopropyl)-28-[(1R)-1-hydroxyethyl]-22-(hydroxymethyl)-3,6,12,18,21,24,27,30,33,36,39,42,48,51-tetradecaoxo-49-[(4-phenylphenyl)methyl]-53,54-dithia-2,5,11,17,20,23,26,29,32,35,38,41,47,50-tetradecaazapentacyclo[29.20.4.0^{7,11}.0^{13,17}.0^{43,47}]pentapentacontan-40-yl]acetic acid] | 1 µM | 25.6 µM |
| CC[C@H](C)[C@@H]1NC(=O)[C@@H]2CCCN2C(=O)[C@@H]2CCCN2C(=O)[C@H]([C@@H](C)CC)NC(=O)[C@H](CO)NC(=O)[C@H](CCCCN)NC(=O)[C@H]([C@@H](C)O)NC(=O)[C@@H]2CSSC[C@H](NC1=O)C(=O)N[C@@H](Cc1ccc3ccccc3c1)C(=O)N1CCC[C@H]1C(=O)N[C@@H](CC(=O)O)C(=O)NCC(=O)N[C@@H](CCCN=C(N)N)C(=O)N2 [2-[(1R,4S,7S,13S,19S,22S,25S,28S,31R,34S,40S,43S,49S)-25-(4-aminobutyl)-4,19-bis[(2S)-butan-2-yl]-34-(3-carbamimidamidopropyl)-28-[(1R)-1-hydroxyethyl]-22-(hydroxymethyl)-49-(naphthalen-2-ylmethyl)-3,6,12,18,21,24,27,30,33,36,39,42,48,51-tetradecaoxo-53,54-dithia-2,5,11,17,20,23,26,29,32,35,38,41,47,50-tetradecaazapentacyclo[29.20.4.0^{7,11}.0^{13,17}.0^{43,47}]pentapentacontan-40-yl]acetic acid] | 0.45 µM | 16.3 µM |
| CC[C@H](C)[C@@H]1NC(=O)[C@@H]2CCCN2C(=O)[C@@H]2CCCN2C(=O)[C@H]([C@@H](C)CC)NC(=O)[C@H](CO)NC(=O)[C@H](CCCCN)NC(=O)[C@H]([C@@H](C)O)NC(=O)[C@@H]2CSSC[C@H](NC1=O)C(=O)N[C@@H](Cc1ccccc1)C(=O)N1CCC[C@H]1C(=O)N[C@@H](CC(=O)O)C(=O)NCC(=O)N[C@@H](CCCNC(=N)N)C(=O)N2 [2-[(1R,4S,7S,13S,19S,22S,25S,28S,31R,34S,40S,43S,49S)-25-(4-aminobutyl)-49-benzyl-4,19-bis[(2S)-butan-2-yl]-34-(3-carbamimidamidopropyl)-28-[(1R)-1-hydroxyethyl]-22-(hydroxymethyl)-3,6,12,18,21,24,27,30,33,36,39,42,48,51-tetradecaoxo-53,54-dithia-2,5,11,17,20,23,26,29,32,35,38,41,47,50-tetradecaazapentacyclo[29.20.4.0^{7,11}.0^{13,17}.0^{43,47}]pentapentacontan-40-yl]acetic acid] | 0.1 µM | – |
| CC[C@H](C)[C@@H]1NC(=O)[C@@H]2CCCN2C(=O)[C@@H]2CCCN2C(=O)[C@H]([C@@H](C)CC)NC(=O)[C@H](CO)NC(=O)[C@H](CCCCN)NC(=O)[C@H]([C@@H](C)O)NC(=O)[C@@H]2CSCSC[C@H](NC1=O)C(=O)N[C@@H](Cc1ccccc1)C(=O)N1CCC[C@H]1C(=O)N[C@@H](CC(=O)O)C(=O)NCC(=O)N[C@@H](CCCN=C(N)N)C(=O)N2 [2-[(1R,4S,7S,13S,19S,22S,25S,28S,31R,34S,40S,43S,49S)-25-(4-aminobutyl)-49-benzyl-4,19-bis[(2S)-butan-2-yl]-34-(3-carbamimidamidopropyl)-28-[(1R)-1-hydroxyethyl]-22-(hydroxymethyl)-3,6,12,18,21,24,27,30,33,36,39,42,48,51-tetradecaoxo-53,55-dithia-2,5,11,17,20,23,26,29,32,35,38,41,47,50-tetradecaazapentacyclo[29.20.5.0^{7,11}.0^{13,17}.0^{43,47}]hexapentacontan-40-yl]acetic acid] | 0.16 µM | 10 µM |
| CC[C@H](C)[C@@H]1NC(=O)[C@@H]2CCCN2C(=O)[C@@H]2CCCN2C(=O)[C@H]([C@@H](C)CC)NC(=O)[C@H](CO)NC(=O)[C@H](CCCCN)NC(=O)[C@H]([C@@H](C)O)NC(=O)[C@@H]2CCSSC[C@H](NC1=O)C(=O)N[C@@H](Cc1ccccc1)C(=O)N1CCC[C@H]1C(=O)N[C@@H](CC(=O)O)C(=O)NCC(=O)N[C@@H](CCCN=C(N)N)C(=O)N2 [2-[(1R,4S,7S,13S,19S,22S,25S,28S,31S,34S,40S,43S,49S)-25-(4-aminobutyl)-49-benzyl-4,19-bis[(2S)-butan-2-yl]-34-(3-carbamimidamidopropyl)-28-[(1R)-1-hydroxyethyl]-22-(hydroxymethyl)-3,6,12,18,21,24,27,30,33,36,39,42,48,51-tetradecaoxo-53,54-dithia-2,5,11,17,20,23,26,29,32,35,38,41,47,50-tetradecaazapentacyclo[29.20.5.0^{7,11}.0^{13,17}.0^{43,47}]hexapentacontan-40-yl]acetic acid] | 0.38 µM | – |
